PMC3277886, “High-affinity fluorescent ligands for the 5-HT3 receptor” (Bioorganic & Medicinal Chemistry Letters, 2012)
Read-outs that look alike come from different tables or passages of the source.

Key:
human 5-HT3AR [1] = target: T1, human 5-HT3AR (Homo sapiens, UniProt P46098); conditions: read-out: Ki (nM) mean ± SEM; cited from earlier work
T1 construct: expressed in transfected cells
T1 sequence (P46098 24-478): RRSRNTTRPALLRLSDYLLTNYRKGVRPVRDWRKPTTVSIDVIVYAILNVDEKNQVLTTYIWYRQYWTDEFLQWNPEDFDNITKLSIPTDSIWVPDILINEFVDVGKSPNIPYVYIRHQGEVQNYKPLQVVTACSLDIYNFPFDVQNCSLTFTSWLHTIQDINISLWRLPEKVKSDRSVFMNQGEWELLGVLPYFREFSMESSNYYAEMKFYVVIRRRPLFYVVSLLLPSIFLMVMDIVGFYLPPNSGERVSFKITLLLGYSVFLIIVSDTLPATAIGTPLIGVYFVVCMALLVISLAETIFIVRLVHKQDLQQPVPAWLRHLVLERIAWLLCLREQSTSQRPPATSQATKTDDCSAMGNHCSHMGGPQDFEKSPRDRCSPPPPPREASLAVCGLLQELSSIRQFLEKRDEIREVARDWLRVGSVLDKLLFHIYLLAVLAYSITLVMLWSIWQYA

human 5-HT3AR [2] = target: T1, human 5-HT3AR; test: competition binding studies with [3H]granisetron
Description: The photophysical properties of fluorescent granisetron derivatives were measured in MeOH and/or phosphate buffer at pH 7 (Table 1). […]. […] The binding affinities of the fluorescent granisetron probes for the human 5-HT3AR were determined by competition binding studies with [^3H]granisetron. […]. In terms of probe design it appears that optimal binding is obtained if the fluorophore is conjugated to N1 of granisetron via a short (butyl) aliphatic spacer. […]
(5) Radioligand binding and fluorescence microscopy
Materials, cell culture maintenance, receptor expression and radioligand binding for […]

human 5-HT3A receptors = target: T2, human 5-HT3A receptors (Homo sapiens, UniProt P46098); test: live cell imaging (fluorescence microscopy) of COS-7 cells transiently transfected with human 5-HT3A receptors; format: cell-based; conditions: 100 nM probe; for selectivity of staining: 5-HT3A-transfected versus mock transfected cells / detectable staining of cells: 1 h; for selectivity of staining: 5-HT3A-transfected versus mock transfected cells / inhibition of staining by co-incubation with ondansetron: live COS-7 cells; for selectivity of staining: 5-HT3A-transfected versus mock transfected cells: transfected vs mock transfected; for detectable staining of cells: HBS buffer, room temperature, live COS-7 cells transfected with human 5-HT3A; for inhibition of staining by co-incubation with ondansetron: co-incubation with ondansetron (OND) 10 μM
T2 construct: myc; expressed in transfected cells; host or cells: COS-7
T2 sequence (P46098 24-478): T1 sequence (P46098 24-478)
Description: The utility of granisetron probes 16–18, 26–28 and 36 to fluorescently label the receptor was studied using live cell imaging of COS-7 cells transiently transfected with human 5-HT3A receptors.
Figure 2 Fluorescent labeling of human 5-HT3AR in live COS-7 cells. Cells were either transfected with human 5HT3A cDNA (left and middle panels), or mock transfected (right panels). 24 h later they were incubated with 100 nM of probes 16, 18 or 28 in HBS buffer for 1 h at room temperature in the dark. The cells were imaged using a fluorescence microscope set to the appropriate absorption/emission wavelengths (Table 1). Some cells were also co-incubated with 10 μM ondansetron (OND, middle panels) to block 5-HT3 receptors. Scale bar represents 50 μm. […]
(5) Radioligand binding and fluorescence microscopy […]
For the fluorescence microscopy experiments COS-7 cells were transiently transfected with human 5-HT3A-myc cDNA (10 µg per transfection of […]) by electroporation (400 V, ∞ Ω, 125 µF), and grown on coverslips for 24 hours. Cells were washed with HBS then incubated with 100 nM of each probe (diluted in HBS) for 1 hour at room temperature in the dark. In some experiments 10 µM unlabelled ondansetron (OND) was co-incubated with the probes. Excess probe was removed by washing four times in HBS, and coverslips were placed in an imaging chamber with 1 ml HBS. Cells were then imaged using a fluorescence microscope set to the appropriate emission/excitation wavelengths. […]

[3] = human 5-HT3AR, competition with [3H]granisetron, read-out: Ki (nM) mean ± SEM

| Compound | Ki (human 5-HT3AR [2]) [nM] | Ki (human 5-HT3AR [2]; [3]) [nM] | also measured |
| --- | --- | --- | --- |
| COc1cccc2c1c(C(=O)NC1CC3CCCC(C1)N3C)nn2C (stereo not drawn) [Probe 2] |  |  | Ki (human 5-HT3AR [1]): 26 ± 7 nM |
| COc1cccc2c(C(=O)NC3CC4CCCC(C3)N4C)nn(C)c12 (stereo not drawn) [Probe 5] |  |  | Ki (human 5-HT3AR [1]): 71 ± 8 nM |
| Cc1cc(C)n2c1C=C1C=CC(CCC(=O)NCCCn3nc(C(=O)NC4CC5CCCC(C4)N5C)c4ccccc43)=[N+]1[B-]2(F)F (stereo not drawn) [Probe 6] |  |  | Ki (human 5-HT3AR [1]): 2.8 ± 0.7 nM |
| COc1ccc(C2=[N+]3C(=Cc4c(C)c(CCC(=O)NCCCCCC(=O)NCCCn5nc(C(=O)NC6CC7CCCC(C6)N7C)c6ccccc65)c(C)n4[B-]3(F)F)C=C2)cc1 (stereo not drawn) [Probe 14] | 0.9 ± 0.3 |  |  |
| CCN(CC)c1ccc2cc(C(=O)NCCCn3nc(C(=O)NC4CC5CCCC(C4)N5C)c4ccccc43)c(=O)oc2c1 (stereo not drawn) [Probe 15] | 199 ± 39 |  |  |
| CN1C2CCCC1CC(NC(=O)c1nn(CCCNC(=S)Nc3ccc(-c4c5ccc(=O)cc-5oc5cc(O)ccc45)c(C(=O)O)c3)c3ccccc13)C2 (stereo not drawn) [Probe 16] |  | 1.6 ± 0.3 | selectivity of staining: 5-HT3A-transfected versus mock transfected cells (human 5-HT3A receptors): selective staining for 5-HT3R; detectable staining of cells (human 5-HT3A receptors): detectable staining; inhibition of staining by co-incubation with ondansetron (human 5-HT3A receptors): inhibited by co-incubation with the 5-HT3R antagonist ondansetron |
| CCN(CC)c1ccc2cc(C(=O)NCCCCn3nc(C(=O)NC4CC5CCCC(C4)N5C)c4ccccc43)c(=O)oc2c1 (stereo not drawn) [Probe 17] |  | 7.3 ± 2.5 |  |
| CN1C2CCCC1CC(NC(=O)c1nn(CCCCNC(=S)Nc3ccc(-c4c5ccc(=O)cc-5oc5cc(O)ccc45)c(C(=O)O)c3)c3ccccc13)C2 (stereo not drawn) [Probe 18] | 1.1 ± 0.2 |  | selectivity of staining: 5-HT3A-transfected versus mock transfected cells (human 5-HT3A receptors): selective staining for 5-HT3R; detectable staining of cells (human 5-HT3A receptors): detectable staining; inhibition of staining by co-incubation with ondansetron (human 5-HT3A receptors): inhibited by co-incubation with the 5-HT3R antagonist ondansetron |
| CCN(CC)c1ccc2cc(C(=O)NCCOCCOCCn3nc(C(=O)NC4CC5CCCC(C4)N5C)c4ccccc43)c(=O)oc2c1 (stereo not drawn) [Probe 20] |  | 142 ± 5 |  |
| CN1C2CCCC1CC(NC(=O)c1nn(CCOCCOCCNC(=S)Nc3ccc(-c4c5ccc(=O)cc-5oc5cc(O)ccc45)c(C(=O)O)c3)c3ccccc13)C2 (stereo not drawn) [Probe 21] |  | 6300 |  |
| CCN(CC)c1ccc2c(-c3ccc(NC(=S)NCCOCCOCCn4nc(C(=O)NC5CC6CCCC(C5)N6C)c5ccccc54)cc3C(=O)[O-])c3ccc(=[N+](CC)CC)cc-3oc2c1 (stereo not drawn) [Probe 22] |  | 384 ± 68 |  |
| CN1C2CCCC1CC(NC(=O)c1nn(CCCNc3ccc([N+](=O)[O-])c4nonc34)c3ccccc13)C2 (stereo not drawn) [Probe 26] |  | 8.7 ± 5.8 |  |
| CN(C)c1cccc2c(S(=O)(=O)NCCCn3nc(C(=O)N[C@H]4C[C@H]5CCC[C@@H](C4)N5C)c4ccccc43)cccc12 [Probe 27] |  | 1.2 ± 0.6 |  |
| CC1=CC(C)=[N+]2C1=C(CCCOC(=O)CCCn1nc(C(=O)NC3CC4CCCC(C3)N4C)c3ccccc31)c1c(C)cc(C)n1[B-]2(F)F (stereo not drawn) [Probe 28] |  | 1.6 ± 0.8 | selectivity of staining: 5-HT3A-transfected versus mock transfected cells (human 5-HT3A receptors): intense fluorescence in both 5-HT3A- and mock-transfected cells; detectable staining of cells (human 5-HT3A receptors): detectable staining; inhibition of staining by co-incubation with ondansetron (human 5-HT3A receptors): not blocked by ondansetron |
| CCN(CC)c1ccc2cc(C(=O)NCCOc3cccc4c(C(=O)NC5CC6CCCC(C5)N6C)nn(C)c34)c(=O)oc2c1 (stereo not drawn) [Probe 36] | 1.9 ± 0.9 |  |  |
| CCN(CC)c1ccc2cc(C(=O)NCCCOc3cccc4c(C(=O)N[C@H]5C[C@H]6CCC[C@@H](C5)N6C)nn(C)c34)c(=O)oc2c1 [Probe 37] | 157 ± 9 |  |  |
| CCN(CC)c1ccc2cc(C(=O)NCCOCCOCCOc3cccc4c(C(=O)N[C@@H]5C[C@H]6CCC[C@@H](C5)N6C)nn(C)c34)c(=O)oc2c1 [Probe 38] |  | 1300 |  |
| CN1[C@@H]2CCC[C@H]1C[C@@H](NC(=O)c1nn(C)c3c(OCCOCCOCCNC(=S)Nc4ccc(-c5c6ccc(=O)cc-6oc6cc(O)ccc56)c(C(=O)O)c4)cccc13)C2 [Probe 39] | 208 ± 55 |  |  |
